{"source": "patent US12090156B2", "about": "“Application of CB-839 in preparation of drug for inhibiting corneal neovascularization (CNV)” (Institute of Ophthalmology Affiliated to Shandong First …, priority 2022, dated 2024)", "origin": "cited, not measured here", "test_system": "cancer cell lines such as triple-negative breast cancer (TNBC), lung adenocarcinoma, chondrosarcoma, and lymphoma cell lines"}
{"smiles": "O=C(Cc1cccc(OC(F)(F)F)c1)Nc1ccc(CCCCc2nnc(NC(=O)Cc3ccccn3)s2)nn1", "note": "[CB-839]", "values": [{"measurement": "antiproliferative activity", "result": "significant antiproliferative activity"}]}
